The record followed here is PubChem BioAssay AID330 (DTP/NCI, 2004).

Values joined by “and” are separate entries in the source; they are usually repeats but may differ in a detail not shown here. Equal values may be shown once. Toxic doses and inconclusive results are not listed.

This assay deals with P388 leukemia ip, CD2F1 mice, survival T/C. Nature of the assay: NCI In Vivo Anticancer Drug Screen. Data for tumor model P388 Leukemia (intraperitoneal) in CD2F1 (CDF1) mice. As to conditions: endpoint: median survival time, higher = longer survival. The gist of the method: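 Mice carrying the transplanted tumor received test compound or vehicle. Survival was recorded in each group, and the value is the treated-group measurement divided by that of the vehicle-treated control group.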

The mark [1] stands for this setting: dose: 50.0 mg/kg/injection, schedule: Q01DX009 (ip), vehicle: Klucel (hydroxypropylcellulose) (HPC).
Where [2] appears, read: dose: 100.0 mg/kg/injection, schedule: Q01DX009 (ip), vehicle: Klucel (hydroxypropylcellulose) (HPC).
Setting [3] is: dose: 200.0 mg/kg/injection, schedule: Q01DX009 (ip), vehicle: Klucel (hydroxypropylcellulose) (HPC).
Where [4] appears, read: dose: 50.0 mg/kg/injection, schedule: Q01DX005 (ip), vehicle: Klucel (hydroxypropylcellulose) (HPC).
[5] abbreviates: dose: 100.0 mg/kg/injection, schedule: Q01DX005 (ip), vehicle: Klucel (hydroxypropylcellulose) (HPC).
[6] abbreviates: dose: 200.0 mg/kg/injection, schedule: Q01DX005 (ip), vehicle: Klucel (hydroxypropylcellulose) (HPC).
Where [7] appears, read: dose: 50.0 mg/kg/injection, schedule: Q01DX005 (ip), vehicle: saline.
The mark [8] stands for this setting: dose: 100.0 mg/kg/injection, schedule: Q01DX005 (ip), vehicle: saline.
[9] abbreviates: dose: 200.0 mg/kg/injection, schedule: Q01DX005 (ip), vehicle: saline.
Where [10] appears, read: dose: 50.0 mg/kg/injection, schedule: Q01DX005 (ip), vehicle: saline with Tween-80.
[11] abbreviates: dose: 100.0 mg/kg/injection, schedule: Q01DX005 (ip), vehicle: saline with Tween-80.
[12] abbreviates: dose: 200.0 mg/kg/injection, schedule: Q01DX005 (ip), vehicle: saline with Tween-80.
[13] abbreviates: dose: 60.0 mg/kg/injection, schedule: Q01DX005 (ip), vehicle: saline with Tween-80.
The mark [14] stands for this setting: dose: 120.0 mg/kg/injection, schedule: Q01DX005 (ip), vehicle: saline with Tween-80.

Regarding `COc1ccc(O)c(CN2CCN(Cc3cc(OC)ccc3O)CC2)c1`, the T/C reads like this: (dose: 15.0 mg/kg/injection, schedule: Q01DX005 (ip), vehicle: saline with Tween-80) 91 % of control; (dose: 30.0 mg/kg/injection, schedule: Q01DX005 (ip), vehicle: saline with Tween-80) 86 % of control.

Consider `C#CC(CC)(CC)N=Cc1cc(Cl)cc(Cl)c1O`, for which the T/C (dose: 50.0 mg/kg/injection, schedule: Q01DX009 (ip), vehicle: saline with Tween-80) is 98 % of control; the T/C (dose: 100.0 mg/kg/injection, schedule: Q01DX009 (ip), vehicle: saline with Tween-80) was 94 % of control; the T/C (dose: 200.0 mg/kg/injection, schedule: Q01DX009 (ip), vehicle: saline with Tween-80) was 96 % of control.

With `CC(=O)C1CC(=O)c2c(O)ccc(O)c2C1` (centres undefined), the T/C is, setting by setting: (dose: 25.0 mg/kg/injection, schedule: Q01DX009 (ip), vehicle: water) 94 % of control; (dose: 50.0 mg/kg/injection, schedule: Q01DX009 (ip), vehicle: water) 96 % of control; (dose: 100.0 mg/kg/injection, schedule: Q01DX009 (ip), vehicle: water) 89 % of control; (dose: 200.0 mg/kg/injection, schedule: Q01DX009 (ip), vehicle: water) 111 % of control; (dose: 400.0 mg/kg/injection, schedule: Q01DX009 (ip), vehicle: water) 109 % of control.

On to `CCOC(=O)c1ccc(NC(=O)Nc2cc(Cl)ncn2)cc1`, for which the T/C is 100 % of control under setting [1], 99 % of control under setting [2] and 91 % of control under setting [3].

With `COc1cc(/C=C(/NC(=O)c2ccccc2)C(O)=C(C#N)C#N)ccc1O`, the T/C runs as follows: (dose: 60.0 mg/kg/injection, schedule: Q01DX005 (ip), vehicle: saline) 95 % of control; (dose: 120.0 mg/kg/injection, schedule: Q01DX005 (ip), vehicle: saline) 91 % of control.

Consider `CCOC(=O)N(CCF)N=O`, for which the T/C runs as follows: (dose: 3.12 mg/kg/injection, schedule: Q01DX001 (ip), vehicle: saline with Tween-80) 108 % of control and 96 % of control; (dose: 6.25 mg/kg/injection, schedule: Q01DX001 (ip), vehicle: saline with Tween-80) 108 % of control and 114 % of control; (dose: 12.5 mg/kg/injection, schedule: Q01DX001 (ip), vehicle: saline with Tween-80) 124 % of control; (dose: 25.0 mg/kg/injection, schedule: Q01DX001 (ip), vehicle: saline with Tween-80) 117 % of control.

For `CCc1nc(N)nc(N)c1-c1ccc(NCCc2ccccc2)c([N+](=O)[O-])c1`, the T/C is 101 % of control under setting [4]; 113 % of control and 124 % of control under setting [5]; 162 % of control under setting [6]; 98 % of control (dose: 400.0 mg/kg/injection, schedule: Q01DX005 (ip), vehicle: Klucel (hydroxypropylcellulose) (HPC)).

`CC(C)(Oc1ccc(Cl)cc1)C(=O)NC(CS(C)(=O)=O)C(=O)O` (centres undefined): the T/C was 99 % of control under setting [7], 99 % of control under setting [8] and 100 % of control under setting [9].

With `Cc1ccc2c(c1Oc1ccc(S(N)(=O)=O)cc1)C(=O)c1ccccc1C2=O`, the T/C (dose: 100.0 mg/kg/injection, schedule: Q04DX003 (ip), vehicle: saline with Tween-80) was 100 % of control; the T/C (dose: 200.0 mg/kg/injection, schedule: Q04DX003 (ip), vehicle: saline with Tween-80) was 100 % of control; the T/C (dose: 400.0 mg/kg/injection, schedule: Q04DX003 (ip), vehicle: saline with Tween-80) was 95 % of control.

Take `N#CCCNc1cc(O)c2c(c1O)C(=O)c1ccccc1C2=O`: the T/C runs as follows: (dose: 25.0 mg/kg/injection, schedule: Q01DX009 (ip), vehicle: other) 88 % of control; (dose: 50.0 mg/kg/injection, schedule: Q01DX009 (ip), vehicle: other) 100 % of control; (dose: 100.0 mg/kg/injection, schedule: Q01DX009 (ip), vehicle: other) 95 % of control; (dose: 200.0 mg/kg/injection, schedule: Q01DX009 (ip), vehicle: other) 90 % of control.

On to `CC(C)N=C1NS(=O)(=O)c2ccccc21`, for which the T/C is, setting by setting: under setting [10], 114 % of control; under setting [11], 97 % of control; under setting [12], 108 % of control.

As for `CC1OC(O[C@H]2C[C@](O)(C(C)O)Cc3c(O)c4c(c(O)c32)C(=O)c2c(O)cccc2C4=O)CC(NC=O)C1O` (some centres undefined), the T/C is 118 % of control (dose: 0.16 mg/kg/injection, schedule: Q04DX003 (ip), vehicle: water); 113 % of control (dose: 0.32 mg/kg/injection, schedule: Q04DX003 (ip), vehicle: water); 103 % of control (dose: 0.33 mg/kg/injection, schedule: Q04DX003 (ip), vehicle: water); 111 % of control (dose: 0.65 mg/kg/injection, schedule: Q04DX003 (ip), vehicle: water); 115 % of control (dose: 1.29 mg/kg/injection, schedule: Q04DX003 (ip), vehicle: water); 123 % of control (dose: 2.58 mg/kg/injection, schedule: Q04DX003 (ip), vehicle: water).

In the case of `CN1CCN(CCCO)CC1`, the T/C by setting is: under setting [7], 105 % of control; under setting [8], 97 % of control; under setting [9], 104 % of control.

On to `CSc1nc(C)nc2sc(CO)nc12`, for which the T/C is 97 % of control (dose: 100.0 mg/kg/injection, schedule: Q04DX002 (ip), vehicle: suspension in saline); 97 % of control (dose: 200.0 mg/kg/injection, schedule: Q04DX002 (ip), vehicle: suspension in saline); 96 % of control (dose: 400.0 mg/kg/injection, schedule: Q04DX002 (ip), vehicle: suspension in saline).

`NC(Cc1ccc2ccccc2c1Cl)C(=O)O` (centres undefined): the T/C by setting is: under setting [1], 102 % of control; under setting [2], 100 % of control; under setting [3], 100 % of control.

With `O=C(O)CCc1c(-c2ccccc2)[nH]c2ccccc12`, the T/C is, setting by setting: (dose: 60.0 mg/kg/injection, schedule: Q01DX005 (ip), vehicle: Klucel + Tween-80) 100 % of control; (dose: 120.0 mg/kg/injection, schedule: Q01DX005 (ip), vehicle: Klucel + Tween-80) 100 % of control; (dose: 240.0 mg/kg/injection, schedule: Q01DX005 (ip), vehicle: Klucel + Tween-80) 100 % of control.

With `CCN(CC)CCn1ncc(Sc2cc([N+](=O)[O-])ccc2N)c(Cl)c1=O`, the T/C under setting [13] is 100 % of control and the T/C under setting [14] was 89 % of control.

Regarding `CCCn1c(Cl)c(/C=N\Nc2ccccc2[N+](=O)[O-])c2ccccc21`, the T/C was 92 % of control (dose: 100.0 mg/kg/injection, schedule: Q01DX001 (ip), vehicle: saline with Tween-80); 92 % of control (dose: 200.0 mg/kg/injection, schedule: Q01DX001 (ip), vehicle: saline with Tween-80); 93 % of control (dose: 400.0 mg/kg/injection, schedule: Q01DX001 (ip), vehicle: saline with Tween-80).

Take `O=C(Nc1cccc(S(=O)(=O)F)c1)Oc1ccc([N+](=O)[O-])cc1`: the T/C under setting [13] was 113 % of control; the T/C under setting [14] is 111 % of control; the T/C (dose: 240.0 mg/kg/injection, schedule: Q01DX005 (ip), vehicle: saline with Tween-80) is 93 % of control.

In the case of `O=C(CNC(=O)c1ccc(Cl)cc1)c1ccc(Br)cc1`, the T/C (dose: 12.5 mg/kg/injection, schedule: Q01DX005 (ip), vehicle: saline with Tween-80) was 94 % of control; the T/C (dose: 25.0 mg/kg/injection, schedule: Q01DX005 (ip), vehicle: saline with Tween-80) was 92 % of control; the T/C under setting [10] is 92 % of control.

With `CC1(C)c2ccccc2-c2nc3ccccc3cc2C1N1CCOCC1` (centres undefined), the T/C reads like this: under setting [10], 92 % of control; under setting [11], 104 % of control; under setting [12], 101 % of control.

For `Cc1nn2c(-c3snnc3C)nnc2s1`, the T/C reads like this: (dose: 100.0 mg/kg/injection, schedule: Q01DX001 (ip), vehicle: Klucel (hydroxypropylcellulose) (HPC)) 99 % of control; (dose: 200.0 mg/kg/injection, schedule: Q01DX001 (ip), vehicle: Klucel (hydroxypropylcellulose) (HPC)) 100 % of control; (dose: 400.0 mg/kg/injection, schedule: Q01DX001 (ip), vehicle: Klucel (hydroxypropylcellulose) (HPC)) 100 % of control.

Turning to `Cc1c([N+](=O)[O-])cc(N)cc1S(=O)(=O)O`, the T/C runs as follows: under setting [4], 96 % of control; under setting [5], 96 % of control; under setting [6], 93 % of control.
